Tests used:
Plasma stability = assay type: in vitro ADME; settings: male Sprague-Dawley rat plasma, 6 μL of 1 mM compound (10% DMSO) in 27 μL plasma, 37°C, 0-24 h, UPLC-MS, one-phase decay, mean ± SEM of at least three experiments, read-out: Plasmatic half-life t1/2 (±SEM)
Description: The degradation was quenched by adding 140 μL of 1% formic acid in an acetonitrile-ethanol (1:1) solution containing 0.25 mM of N,N-dimethylbenzamide (used as an internal standard). This mixture was initially transferred to an Impact Protein Precipitation filter plate (Phenomenex, California), the filtrates from which were subsequently collected in a second 96-well UPLC plate. Both plates were centrifuged at 500 g for 10 min while maintaining a temperature of 4°C. The filtrates were then diluted with 30 μL of distilled water and processed for analysis using an Acquity UPLC-MS system class H (using an Acquity UPLC protein BEH C18 column that measured 2.1 mm × 50 mm and had 1.7 μm particles with pores 130 Å in width). The peptide half-life, derived from the degradation curve, was calculated using the exponential one-phase decay function in GraphPad Prism 9. Degradation was estimated by comparing the mass spectrum at each point with those at the zero-minute mark. The data were presented as a mean ± SEM of at least three unique experiments, each performed in singlicate.

AT1R [1] = biological target: T1, AT1R (Homo sapiens, UniProt P30556); test: Rho BRET sensor (PKN-RBD-RlucII/rGFP-CAAX) in ΔG12/13 HEK293 cells expressing AT1R; assay type: cell-based; set-up: expressed in transfected cells; host or cells: HEK293 cells, transient PEI transfection; settings: for Emax Rho Gαq/11 (% AngII): ΔG12/13 HEK293/AT1R, Rho BRET sensor, response at 10 μM, normalised to AngII; for EC50: ΔG12/13 HEK293 cells expressing AT1R, Rho (PKN-RBD-RlucII/rGFP-CAAX) BRET sensor, 3 min stimulation, mean ± SEM of at least three to five independent experiments, SEM, read-out: EC50 Rho Gαq/11
T1 sequence (P30556 1-359): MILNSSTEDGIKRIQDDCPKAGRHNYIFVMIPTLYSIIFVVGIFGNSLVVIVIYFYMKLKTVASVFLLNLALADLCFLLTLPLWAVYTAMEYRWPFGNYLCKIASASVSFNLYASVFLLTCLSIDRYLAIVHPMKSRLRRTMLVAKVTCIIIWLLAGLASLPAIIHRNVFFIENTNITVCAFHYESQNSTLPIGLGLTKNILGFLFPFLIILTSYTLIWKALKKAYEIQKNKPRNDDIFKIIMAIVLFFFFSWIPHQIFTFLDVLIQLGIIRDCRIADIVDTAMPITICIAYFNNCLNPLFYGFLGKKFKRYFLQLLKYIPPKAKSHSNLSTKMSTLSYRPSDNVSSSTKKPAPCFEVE
Description: (§1) We utilized a clonal cell line HEK293, referred to hereafter as HEK293 cells, which has been previously described.[7],[8] As a gracious gift from A. Inoue (Tohoku University, Sendai, Miyagi, Japan), CRISPR Gαq/11 and Gα12/13 knockout cell lines (ΔGq/11 and ΔG12/13, respectively), were derived as previously explained.[48] In brief, a CRISPR-Cas9 system was used to target either GNAQ and GNA11 or GNA12 and GNA13 genes in HEK293T cells simultaneously to generate the Gαq/11 and Gα12/13 knockout cell lines. For the production of adenovirus, we utilized HEK293A cells. All cells were grown in DMEM supplemented with 10% FBS and Penicillin-Streptomycin-L-Glutamine (10000 IU penicillin, 10000 µg/mL Streptomycin, 200 mM L-Glutamine) at 37°C in T175 flasks under a 5% CO2 humidified chamber. Periodic testing was carried out for mycoplasma contamination (ABM™, Mycoplasma PCR Detection kit). For all biosensors used, cells underwent transfection with the PEI reagent, employing a PEI:DNA ratio of 3:1. For the Gαq biosensor, HEK293 cells were transfected with the plasmids coding for Gαq-RLucII (120 ng), Gβ1 (3000 ng), Gγ1-GFP10 (3000 ng), human AT1 (3000 ng) and Salmon sperm DNA (SSD) (880 ng). For the β-arrestin2 recruitment assay, HEK293 cells were transfected with the plasmids coding for 120 ng β-arrestin-2-RLucII, 3000 ng AT1, 3000 ng rGFP-CAAX, and 3880 ng SSD. For the measurement of PKC, HEK293 cells were transfected with 3000 ng AT1, 600 ng PKC-c1b, and 6400 ng SSD. […] 100 µL of the cell/DNA mixture was added to white 96-well plates and incubated at 37°C at 5% CO2 for 48 h. For the Rho assay, ΔG12/13 cells were seeded at a density of 9,000 cells per well in poly-ornithine-coated white 96-well plates and transfected the following day. In brief, 1 μg of total DNA in 100 μL of PBS was mixed with 100 μL of PBS containing 3 μL of 1 mg/mL PEI. For Rho signaling, 150 ng of AT1R DNA with 25 ng of PKN-RBD-RlucII [8], and 100 ng of rGFP-CAAX were used. Empty pcDNA was used to reach 1 µg of the total DNA amount in 100 μL of PBS. The DNA was then mixed with 100 μL of PBS containing 3 μL of 1 mg/mL PEI. After a 20-min incubation, the DNA/PEI complexes were dispensed into cells in 96-well plates (15 µL/well), and the experiment was carried out 48 h post-transfection.
On the day of the experiment, each well was washed with 80 µL of Tyrode’s buffer (140 mM NaCl, 2.7 mM KCl, 1 mM CaCl2, 12 mM NaHCO3, 5.6 mM D-glucose, 0.5 mM MgCl2, 0.37 mM NaH2PO4, 25 mM Hepes (pH 7.4)). This was followed by incubation for 1 h in Tyrode’s buffer at room temperature. […] Cells were then stimulated with increasing doses of the indicated ligand, and BRET signals were measured using a Tristar2 (Berthold) microplate reader 10 min later. […] BRET signals were then measured using a Synergy2 (BioTek) microplate reader. […]

AT1R [2] = biological target: T1, AT1R; test: Gαq activation BRET (GABY sensor) in HEK293 cells expressing AT1R; assay type: cell-based; set-up: expressed in transfected cells; host or cells: HEK293 cells, transient PEI transfection; settings: for Emax Gαq (% AngII): HEK293/AT1R, GABY BRET sensor, response of the ligand at 10 μM, normalised to AngII; for EC50: HEK293 cells transiently expressing human AT1R, Gαq-RlucII/Gβ1/Gγ1-GFP10 (GABY) BRET sensor, BRET read 10 min after ligand, mean ± SEM of at least three to five independent experiments
Description: as §1
On the day of the experiment, each well was washed with 80 µL of Tyrode’s buffer (140 mM NaCl, 2.7 mM KCl, 1 mM CaCl2, 12 mM NaHCO3, 5.6 mM D-glucose, 0.5 mM MgCl2, 0.37 mM NaH2PO4, 25 mM Hepes (pH 7.4)). This was followed by incubation for 1 h in Tyrode’s buffer at room temperature. For the Gαq, β-arrestin-2, and PKC biosensors used in HEK293 cells, coelenterazine 400A (at a final concentration of 5 μM) was added 10 min before stimulation. Cells were then stimulated with increasing doses of the indicated ligand, and BRET signals were measured using a Tristar2 (Berthold) microplate reader 10 min later. For the PKC and Rho biosensors in VSMCs, and the Rho biosensor in ΔG12/13 cells, cells were similarly stimulated with ligands for 1 min, 1 min 30 s, and 3 min, respectively, before BRET measurement. […] BRET signals were then measured using a Synergy2 (BioTek) microplate reader. The applied filter set was 410/80 nm and 515/30 nm, designed to detect the light emissions of RlucII (Renilla luciferase) (donor) and rGFP (acceptor), respectively.

| Structure (SMILES) | half-life at 182 µM (Plasma stability) [min] | Emax Rho Gαq/11 (% AngII) (AT1R [1]) | EC50 (AT1R [1]) [nM] | Emax Gαq (% AngII) (AT1R [2]) | EC50 (AT1R [2]; SEM) [nM] | EC50 (AT1R [2]) [nM] |
| --- | --- | --- | --- | --- | --- | --- |
| CC[C@H](C)[C@H](NC(=O)[C@H](Cc1ccc(O)cc1)NC(=O)[C@@H](NC(=O)[C@H](CCCNC(=N)N)NC(=O)[C@@H](N)CC(=O)O)C(C)C)C(=O)N[C@@H](Cc1c[nH]cn1)C(=O)N1CCC[C@H]1C(=O)N[C@@H](Cc1ccc(OC)cc1)C(=O)O [compound 11] | 33 ± 4 | 105 | 2.3 ± 0.5 | 113 | 1.1 ± 0.4 | – |
| CC[C@H](C)[C@H](NC(=O)[C@H](Cc1ccc(O)cc1)NC(=O)[C@@H](NC(=O)[C@H](CCCNC(=N)N)NC(=O)[C@@H](N)CC(=O)O)C(C)C)C(=O)N[C@@H](Cc1c[nH]cn1)C(=O)N1CCC[C@H]1C(=O)N[C@@H](Cc1ccc(OCc2ccccc2)cc1)C(=O)O [compound 12] | 32 ± 3 | 47 | 21 ± 5 | 11 | – | > 10000 |

— paper doi:10.1101/2025.08.13.670122v1 (bioRxiv, 2025)
